Literature values, collected in US12029226B2, “Concentrate for preparing a drinkable solution (II)” (Alzchem Trostberg GmbH, priority 2019, dated 2024).

Settings: literature value

SMILES	pKs value
O=CO [formic acid]	3.77
CC(O)C(=O)O (centres unmarked) [lactic acid]	3.90+/−0.11
